# Patent US11591329B2, “Bicyclic heterocycles as FGFR inhibitors” (Incyte Corporation, priority 2019, dated 2023)
# Molecular target: FGFR3 enzyme (Homo sapiens (Human), UniProt P22607)
# Assay: FGFR Enzymatic Assay (peptide phosphorylation, FRET)
# Assay type: biochemical
# Conditions: pre-incubated for 4 hours; ATP 140 μM; 25° C. for 1 hr
# Protocol: The inhibitor potency of the exemplified compounds was measured in an enzyme assay that measures peptide phosphorylation using FRET measurements to detect product formation. Inhibitors were serially diluted in DMSO and a volume of 0.5 μL was transferred to the wells of a 384-well plate. For FGFR3, a 10 μL volume of FGFR3 enzyme (Millipore) diluted in assay buffer (50 mM HEPES, 10 mM MgCl2, 1 mM EGTA, 0.01% Tween-20, 5 mM DTT, pH 7.5) was added to the plate and pre-incubated for a time between 5-10 minutes and up to 4 hours. Appropriate controls (enzyme blank and enzyme with no inhibitor) were included on the plate. The assay was initiated by the addition of a 10 μL solution containing biotinylated EQEDEPEGDYFEWLE peptide substrate (SEQ ID NO: 1) and ATP (final concentrations of 500 nM and 140 μM respectively) in assay buffer to the wells. The plate was incubated at 25° C. for 1 hr. The reactions were ended with the addition of 10 μL/well of quench solution (50 mM Tris, 150 mM NaCl, 0.5 mg/mL BSA, pH 7.8; 30 mM EDTA with Perkin Elmer Lance Reagents at 3.75 nM Eu-antibody PY20 and 180 nM APC-Streptavidin). The plate was allowed to equilibrate for ˜1 hr before scanning the wells on a PheraStar plate reader (BMG Labtech).
# GraphPad prism3 was used to analyze the data. The IC50 values were derived by fitting the data to the equation for a sigmoidal dose-response with a variable slope. Y=Bottom+(Top−Bottom)/(1+10^((LogIC50−X)*HillSlope)) where X is the logarithm of concentration and Y is the response.
# Table 1 provides IC50 data for compounds of the invention assayed in the FGFR Enzymatic Assay after dilution in assay buffer, added to the plate and pre-incubated for 4 hours. The symbol: “+” indicates an IC50 less than 10 nM; “++” indicates an IC50 greater than or equal to 10 nM but less than 30 nM; “+++” indicates an IC50 greater than or equal to 30 nM but less than 200 nM; and “++++” indicates an IC50 greater than or equal to 200 nM.
# FGFR3 enzyme, sequence (P22607 23-806): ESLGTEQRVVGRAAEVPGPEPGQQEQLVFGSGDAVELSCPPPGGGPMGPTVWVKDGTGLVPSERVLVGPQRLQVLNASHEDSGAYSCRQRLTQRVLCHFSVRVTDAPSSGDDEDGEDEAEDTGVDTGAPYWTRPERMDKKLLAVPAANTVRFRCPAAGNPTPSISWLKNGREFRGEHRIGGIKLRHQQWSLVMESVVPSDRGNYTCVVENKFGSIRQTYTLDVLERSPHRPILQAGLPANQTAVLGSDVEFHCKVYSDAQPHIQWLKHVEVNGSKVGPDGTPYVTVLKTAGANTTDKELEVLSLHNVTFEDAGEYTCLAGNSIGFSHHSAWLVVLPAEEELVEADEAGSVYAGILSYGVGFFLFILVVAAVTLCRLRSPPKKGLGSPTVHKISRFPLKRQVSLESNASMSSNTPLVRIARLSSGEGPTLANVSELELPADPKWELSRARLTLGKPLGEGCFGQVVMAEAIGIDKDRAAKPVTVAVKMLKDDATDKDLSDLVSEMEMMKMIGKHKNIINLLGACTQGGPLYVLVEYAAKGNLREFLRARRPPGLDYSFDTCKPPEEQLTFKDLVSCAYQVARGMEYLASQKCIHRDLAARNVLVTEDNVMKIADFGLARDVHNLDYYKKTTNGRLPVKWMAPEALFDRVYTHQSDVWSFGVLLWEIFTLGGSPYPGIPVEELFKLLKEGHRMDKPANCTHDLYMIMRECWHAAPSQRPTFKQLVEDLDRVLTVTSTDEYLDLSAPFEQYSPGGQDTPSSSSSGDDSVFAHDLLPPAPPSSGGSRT
row,SMILES,IC50 [nM]
1,"Cn1cc(-c2n[nH]c3ccc(N4CCCC(O)C4)nc23)cn1 (centres unmarked) [Example 1, 1-(3-(1-Methyl-1H-pyrazol-4-yl)-1H-pyrazolo[4,3-b]pyridin-5-yl)piperidin-3-ol]",≥ 200
2,"Cn1cc(-c2n[nH]c3ccc(N4CCn5cnc(C(F)(F)F)c5C4)nc23)cn1 [Example 2, 3-(1-Methyl-1H-pyrazol-4-yl)-5-(1-(trifluoromethyl)-5,6-dihydroimidazo[1,5-a]pyrazin-7(8H)-yl)-1H-pyrazolo[4,3-b]pyridine]",< 10
3,"Cn1cc(-c2n[nH]c3ccc(N4CCCn5nccc54)nc23)cn1 [Example 3, 5-(6,7-Dihydropyrazolo[1,5-a]pyrimidin-4(5H)-yl)-3-(1-methyl-1H-pyrazol-4-yl)-1H-pyrazolo[4,3-b]pyridine]",≥ 200
4,"CN1CC2CCC(C1=O)N2c1ccc2[nH]nc(-c3cnn(C)c3)c2n1 (centres unmarked) [Example 4, 3-Methyl-8-(3-(1-methyl-1H-pyrazol-4-yl)-1H-pyrazolo[4,3-b]pyridin-5-yl)-3,8-diazabicyclo[3.2.1]octan-2-one]",< 10
5,"CC(C)C1C(=O)N(C)CCN1c1ccc2[nH]nc(-c3cnn(C)c3)c2n1 (centres unmarked) [Example 5, 3-Isopropyl-1-methyl-4-(3-(1-methyl-1H-pyrazol-4-yl)-1H-pyrazolo[4,3-b]pyridin-5-yl)piperazin-2-one]",< 10
6,"CCC1C(=O)N(C)CCN1c1ccc2[nH]nc(-c3cnn(C)c3)c2n1 (centres unmarked) [Example 6, 3-Ethyl-1-methyl-4-(3-(1-methyl-1H-pyrazol-4-yl)-1H-pyrazolo[4,3-b]pyridin-5-yl)piperazin-2-one]",< 10
7,"CCC1(CC)C(=O)N(C)CCN1c1ccc2[nH]nc(-c3cnn(C)c3)c2n1 [Example 7, 3,3-Diethyl-1-methyl-4-(3-(1-methyl-1H-pyrazol-4-yl)-1H-pyrazolo[4,3-b]pyridin-5-yl)piperazin-2-one]",10 to 30
8,"CN1CCN(c2ccc3[nH]nc(-c4cnn(C)c4)c3n2)C(Cc2ccccc2)C1=O (centres unmarked) [Example 8, 3-Benzyl-1-methyl-4-(3-(1-methyl-1H-pyrazol-4-yl)-1H-pyrazolo[4,3-b]pyridin-5-yl)piperazin-2-one]",10 to 30
9,"CN1CCN(c2ccc3[nH]nc(-c4cnn(C)c4)c3n2)C(CC2CC2)C1=O (centres unmarked) [Example 9, 3-(Cyclopropylmethyl)-1-methyl-4-(3-(1-methyl-1H-pyrazol-4-yl)-1H-pyrazolo[4,3-b]pyridin-5-yl)piperazin-2-one]",10 to 30
10,"CN1CCN(c2ccc3[nH]nc(-c4cnn(C)c4)c3n2)C(C2CCOCC2)C1=O (centres unmarked) [Example 10, 1-Methyl-4-(3-(1-methyl-1H-pyrazol-4-yl)-1H-pyrazolo[4,3-b]pyridin-5-yl)-3-(tetrahydro-2H-pyran-4-yl)piperazin-2-one]",≥ 200
11,"CN1CCN(c2ccc3[nH]nc(-c4cnn(C)c4)c3n2)C(Cc2ccncc2)C1=O (centres unmarked) [Example 11, 1-Methyl-4-(3-(1-methyl-1H-pyrazol-4-yl)-1H-pyrazolo[4,3-b]pyridin-5-yl)-3-(pyridin-4-ylmethyl)piperazin-2-one]",≥ 200
12,"CC(c1ccccc1)C1C(=O)N(C)CCN1c1ccc2[nH]nc(-c3cnn(C)c3)c2n1 (centres unmarked) [Example 12, 1-Methyl-4-(3-(1-methyl-1H-pyrazol-4-yl)-1H-pyrazolo[4,3-b]pyridin-5-yl)-3-(1-phenylethyl)piperazin-2-one]",< 10
13,"CN1CCN(c2ccc3[nH]nc(-c4cnn(C)c4)c3n2)C(C2CC2)C1=O (centres unmarked) [Example 13, 3-Cyclopropyl-1-methyl-4-(3-(1-methyl-1H-pyrazol-4-yl)-1H-pyrazolo[4,3-b]pyridin-5-yl)piperazin-2-one]",< 10
14,"CC1C(=O)N(C2CC2)CCN1c1ccc2[nH]nc(-c3cnn(C)c3)c2n1 (centres unmarked) [Example 14, 1-Cyclopropyl-3-methyl-4-(3-(1-methyl-1H-pyrazol-4-yl)-1H-pyrazolo[4,3-b]pyridin-5-yl)piperazin-2-one]",10 to 30
15,"CC1CN(c2ccc3[nH]nc(-c4cnn(C)c4)c3n2)C(C)C(=O)N1C (centres unmarked) [Example 15, 1,3,6-Trimethyl-4-(3-(1-methyl-1H-pyrazol-4-yl)-1H-pyrazolo[4,3-b]pyridin-5-yl)piperazin-2-one]",< 10
16,"CC(C)C1C(=O)N(C)CCN1c1ccc2[nH]nc(-c3cnn(Cc4cccnc4)c3)c2n1 (centres unmarked) [Example 16, 3-Isopropyl-1-methyl-4-(3-(1-(pyridin-3-ylmethyl)-1H-pyrazol-4-yl)-1H-pyrazolo[4,3-b]pyridin-5-yl)piperazin-2-one]",< 10
17,"CC(C)C1C(=O)N(C)CCN1c1ccc2[nH]nc(-c3cnn(CCN4CCOCC4)c3)c2n1 (centres unmarked) [Example 17, 3-Isopropyl-1-methyl-4-(3-(1-(2-morpholinoethyl)-1H-pyrazol-4-yl)-1H-pyrazolo[4,3-b]pyridin-5-yl)piperazin-2-one]",10 to 30
18,"CC(C)C1C(=O)N(C)CCN1c1ccc2[nH]nc(-c3ccc(N4CCN(C)CC4)c(F)c3)c2n1 (centres unmarked) [Example 18, 4-(3-(3-Fluoro-4-(4-methylpiperazin-1-yl)phenyl)-1H-pyrazolo[4,3-b]pyridin-5-yl)-3-isopropyl-1-methylpiperazin-2-one]",< 10
19,"CC(C)C1C(=O)N(C)CCN1c1ccc2[nH]nc(-c3cc4cnccc4s3)c2n1 (centres unmarked) [Example 19, 3-Isopropyl-1-methyl-4-(3-(thieno[3,2-c]pyridin-2-yl)-1H-pyrazolo[4,3-b]pyridin-5-yl)piperazin-2-one]",< 10
20,"CC(C)C1C(=O)N(C)CCN1c1ccc2[nH]nc(-c3cn(C)nn3)c2n1 (centres unmarked) [Example 20, 3-Isopropyl-1-methyl-4-(3-(1-methyl-1H-1,2,3-triazol-4-yl)-1H-pyrazolo[4,3-b]pyridin-5-yl)piperazin-2-one]",30 to 200
21,"CC1C(=O)N(C)CCN1c1nc2c(-c3cnn(C)c3)n[nH]c2cc1Cl (centres unmarked) [Example 21, 4-(6-Chloro-3-(1-methyl-1H-pyrazol-4-yl)-1H-pyrazolo[4,3-b]pyridin-5-yl)-1,3-dimethylpiperazin-2-one]",10 to 30
22,"Cc1cc2[nH]nc(-c3cnn(C)c3)c2nc1N1CCN(C)C(=O)C1C (centres unmarked) [Example 22, 1,3-Dimethyl-4-(6-methyl-3-(1-methyl-1H-pyrazol-4-yl)-1H-pyrazolo[4,3-b]pyridin-5-yl)piperazin-2-one]",30 to 200
23,"CC1C(=O)N(C)CCN1c1nc2c(-c3cnn(C)c3)n[nH]c2cc1C#N (centres unmarked) [Example 23, 5-(2,4-Dimethyl-3-oxopiperazin-1-yl)-3-(1-methyl-1H-pyrazol-4-yl)-1H-pyrazolo[4,3-b]pyridine-6-carbonitrile]",30 to 200
24,"COc1cc2[nH]nc(-c3cnn(C)c3)c2nc1N1CCN(C)C(=O)C1C (centres unmarked) [Example 24, 4-(6-Methoxy-3-(1-methyl-1H-pyrazol-4-yl)-1H-pyrazolo[4,3-b]pyridin-5-yl)-1,3-dimethylpiperazin-2-one]",30 to 200
25,"CC1C(=O)N(C)CCN1c1nc2c(-c3cnn(C)c3)n[nH]c2cc1-c1ccoc1 (centres unmarked) [Example 25, 4-(6-(Furan-3-yl)-3-(1-methyl-1H-pyrazol-4-yl)-1H-pyrazolo[4,3-b]pyridin-5-yl)-1,3-dimethylpiperazin-2-one]",30 to 200
26,"CC1C(=O)N(C)CCN1c1nc2c(-c3cnn(C)c3)n[nH]c2cc1Cc1ccccc1 (centres unmarked) [Example 26, 4-(6-Benzyl-3-(1-methyl-1H-pyrazol-4-yl)-1H-pyrazolo[4,3-b]pyridin-5-yl)-1,3-dimethylpiperazin-2-one]",30 to 200
